ChEMBL document CHEMBL5030563, “Structure-Based Design of Dual-Acting Compounds Targeting Adenosine A2A Receptor and Histone Deacetylase as Novel Tumor Immunotherapeutic Agents” (J Med Chem, 2021)

Tests used:
Histone deacetylase 9 = Histone deacetylase 9 (Homo sapiens, UniProt Q9UKV0); test: Inhibition of HDAC9 (unknown origin) assessed as release of 7-amino-4-methylcoumarin incubated in room temperature for 15 min measured by Spectra max microtitre plate reader
[1] = Oral bioavailability in ICR mouse at 20 mg/kg by LC-MS/MS analysis; type: ADME, organism-based; details: in vivo
[2] = Elimination rate constant in ICR mouse at 5 mg/kg, iv up to 24 hrs by LC-MS/MS analysis; type: ADME, organism-based; details: in vivo
MC-38 [3] = test: Antiproliferative activity against mouse MC38 cells measured after 72 hrs by CCK8 assay; type: functional; details: Mus musculus, MC-38
MC-38 [4] = test: Antitumour activity against mouse MC38 cells in C57BL/6 mouse assessed as tumour growth inhibition at 50 mg/kg, ip, bid measured after 9 days relative to control; type: functional; details: MC-38, ip, 216 h, time 9 day, read-out: TGI
[5] = MRT in ICR mouse at 5 mg/kg, iv up to 24 hrs by LC-MS/MS analysis; type: ADME, organism-based; details: in vivo
[6] = Cmax in ICR mouse at 20 mg/kg, ip up to 24 hrs by LC-MS/MS analysis; type: ADME, organism-based; parameters: route intraperitoneal, dose 20 mg/kg, time <=24; details: in vivo
[7] = AUC (0 to infinity) in ICR mouse at 20 mg/kg, ip up to 24 hrs by LC-MS/MS analysis; type: ADME, organism-based; parameters: route intraperitoneal, dose 20 mg/kg, time <=24; details: in vivo
[8] = MRT in ICR mouse at 20 mg/kg, ip up to 24 hrs by LC-MS/MS analysis; type: ADME, organism-based; details: in vivo
[9] = Clearance in ICR mouse at 5 mg/kg, iv up to 24 hrs by LC-MS/MS analysis; type: ADME, organism-based; details: in vivo
[10] = Cmax in ICR mouse at 5 mg/kg, iv up to 24 hrs by LC-MS/MS analysis; type: ADME, organism-based; parameters: route intravenous, dose 5 mg/kg, time <=24; details: in vivo
[11] = AUC (0 to infinity) in ICR mouse at 5 mg/kg, iv up to 24 hrs by LC-MS/MS analysis; type: ADME, organism-based; parameters: route intravenous, dose 5 mg/kg, time <=24; details: in vivo
[12] = Toxicity in C57BL/6 mouse assessed as loss in body weight at 30 to 60 mg/kg, ip, bid measured after 9 days; type: organism-based; details: in vivo, 216 h, dose 30-60 mg/kg, time 9 day
MC-38 [13] = test: Antitumour activity against mouse MC38 cells in C57BL/6 mouse assessed as tumour growth inhibition at 60 mg/kg, ip, bid measured after 9 days relative to control; type: functional; details: MC-38, ip, 216 h, time 9 day, read-out: TGI
Histone deacetylase 5 = Histone deacetylase 5 (Homo sapiens, UniProt Q9UQL6); test: Inhibition of HDAC5 (unknown origin) assessed as release of 7-amino-4-methylcoumarin incubated in room temperature for 15 min measured by Spectra max microtitre plate reader
[14] = Half life in ICR mouse at 20 mg/kg, ip up to 24 hrs by LC-MS/MS analysis; type: ADME, organism-based; details: in vivo
Histone deacetylase 1 = Histone deacetylase 1 (Homo sapiens, UniProt Q13547); test: Inhibition of HDAC1 (unknown origin) assessed as release of 7-amino-4-methylcoumarin incubated in room temperature for 15 min measured by Spectra max microtitre plate reader
Histone deacetylase 7 = target: T1, Histone deacetylase 7 (Homo sapiens, UniProt Q8WUI4); test: Inhibition of HDAC7 (unknown origin) assessed as release of 7-amino-4-methylcoumarin incubated in room temperature for 15 min measured by Spectra max microtitre plate reader
T1 sequence (Q8WUI4 whole entry): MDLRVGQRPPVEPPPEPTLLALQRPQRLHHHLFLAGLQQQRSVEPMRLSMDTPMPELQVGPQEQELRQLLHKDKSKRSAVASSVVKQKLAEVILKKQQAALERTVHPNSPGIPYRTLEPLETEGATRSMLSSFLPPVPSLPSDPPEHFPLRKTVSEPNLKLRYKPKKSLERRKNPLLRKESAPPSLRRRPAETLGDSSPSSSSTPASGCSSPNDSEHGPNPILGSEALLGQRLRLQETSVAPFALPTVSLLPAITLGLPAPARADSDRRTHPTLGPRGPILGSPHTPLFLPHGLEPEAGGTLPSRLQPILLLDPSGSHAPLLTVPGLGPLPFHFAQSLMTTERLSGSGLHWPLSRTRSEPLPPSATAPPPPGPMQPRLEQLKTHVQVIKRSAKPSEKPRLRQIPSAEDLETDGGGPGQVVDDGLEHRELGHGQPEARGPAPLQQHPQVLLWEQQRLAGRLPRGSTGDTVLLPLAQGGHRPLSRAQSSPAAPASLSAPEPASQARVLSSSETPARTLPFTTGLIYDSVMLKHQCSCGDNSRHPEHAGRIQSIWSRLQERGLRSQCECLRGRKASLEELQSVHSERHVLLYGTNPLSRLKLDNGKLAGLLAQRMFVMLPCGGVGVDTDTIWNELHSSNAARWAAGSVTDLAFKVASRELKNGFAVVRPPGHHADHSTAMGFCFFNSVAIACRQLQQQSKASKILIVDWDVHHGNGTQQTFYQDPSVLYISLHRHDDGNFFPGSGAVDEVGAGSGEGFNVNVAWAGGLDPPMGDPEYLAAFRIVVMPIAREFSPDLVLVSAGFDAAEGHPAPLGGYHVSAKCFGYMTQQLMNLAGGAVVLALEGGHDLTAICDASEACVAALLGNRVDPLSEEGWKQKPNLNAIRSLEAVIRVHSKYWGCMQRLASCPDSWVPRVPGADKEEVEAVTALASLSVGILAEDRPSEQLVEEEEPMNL

Adenosine receptor A2b = target: T2, Adenosine receptor A2b (Homo sapiens, UniProt P29275); test: Displacement of [3H]DPCPX from human adenosine A2B receptor membrane (unknown origin) measured after 60 mins by scintillation counting analysis; type: cell membranes
T2 sequence (P29275 whole entry): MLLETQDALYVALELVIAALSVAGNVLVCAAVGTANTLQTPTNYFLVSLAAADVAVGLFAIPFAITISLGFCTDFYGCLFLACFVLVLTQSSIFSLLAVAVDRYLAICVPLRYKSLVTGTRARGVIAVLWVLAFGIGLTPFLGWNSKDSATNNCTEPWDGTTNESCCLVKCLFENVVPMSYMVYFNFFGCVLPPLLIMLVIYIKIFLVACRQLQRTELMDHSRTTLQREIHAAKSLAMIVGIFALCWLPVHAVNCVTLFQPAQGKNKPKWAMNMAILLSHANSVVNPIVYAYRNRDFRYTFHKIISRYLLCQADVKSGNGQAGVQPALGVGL

[15] = Elimination rate constant in ICR mouse at 20 mg/kg, ip up to 24 hrs by LC-MS/MS analysis; type: ADME, organism-based; details: in vivo
[16] = Cmax in ICR mouse at 20 mg/kg, po by LC-MS/MS analysis; type: ADME, organism-based; parameters: route oral, dose 20 mg/kg; details: in vivo
[17] = Half life in ICR mouse at 20 mg/kg, po by LC-MS/MS analysis; type: ADME, organism-based; details: in vivo
[18] = Elimination rate constant in ICR mouse at 20 mg/kg, po up to 24 hrs by LC-MS/MS analysis; type: ADME, organism-based; details: in vivo

Sequence of Histone deacetylase 9 (Q9UKV0 whole entry): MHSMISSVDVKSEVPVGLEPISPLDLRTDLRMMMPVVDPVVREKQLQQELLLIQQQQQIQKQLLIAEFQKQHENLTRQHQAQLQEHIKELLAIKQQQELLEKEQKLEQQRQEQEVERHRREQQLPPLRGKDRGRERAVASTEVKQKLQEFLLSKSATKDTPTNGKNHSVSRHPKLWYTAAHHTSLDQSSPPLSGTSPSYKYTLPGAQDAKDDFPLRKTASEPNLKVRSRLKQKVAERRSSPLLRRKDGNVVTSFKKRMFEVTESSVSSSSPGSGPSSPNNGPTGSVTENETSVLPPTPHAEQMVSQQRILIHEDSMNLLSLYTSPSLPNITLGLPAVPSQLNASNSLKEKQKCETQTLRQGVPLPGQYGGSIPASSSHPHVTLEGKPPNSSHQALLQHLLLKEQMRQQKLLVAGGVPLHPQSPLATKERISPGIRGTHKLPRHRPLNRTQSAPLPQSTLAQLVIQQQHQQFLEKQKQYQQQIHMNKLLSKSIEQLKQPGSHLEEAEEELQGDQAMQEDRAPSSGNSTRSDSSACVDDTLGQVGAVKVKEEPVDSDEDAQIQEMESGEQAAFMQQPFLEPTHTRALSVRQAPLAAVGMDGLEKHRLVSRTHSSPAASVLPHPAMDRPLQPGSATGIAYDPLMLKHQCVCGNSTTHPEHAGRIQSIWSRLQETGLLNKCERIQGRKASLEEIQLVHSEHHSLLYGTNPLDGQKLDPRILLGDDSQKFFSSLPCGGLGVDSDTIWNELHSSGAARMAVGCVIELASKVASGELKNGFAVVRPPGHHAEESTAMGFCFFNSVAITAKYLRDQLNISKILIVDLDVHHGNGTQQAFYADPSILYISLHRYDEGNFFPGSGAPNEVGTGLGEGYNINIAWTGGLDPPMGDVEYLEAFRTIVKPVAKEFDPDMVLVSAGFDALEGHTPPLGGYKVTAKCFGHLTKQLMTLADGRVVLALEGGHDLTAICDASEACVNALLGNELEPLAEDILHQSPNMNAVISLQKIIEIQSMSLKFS
Sequence of Histone deacetylase 1 (Q13547 whole entry): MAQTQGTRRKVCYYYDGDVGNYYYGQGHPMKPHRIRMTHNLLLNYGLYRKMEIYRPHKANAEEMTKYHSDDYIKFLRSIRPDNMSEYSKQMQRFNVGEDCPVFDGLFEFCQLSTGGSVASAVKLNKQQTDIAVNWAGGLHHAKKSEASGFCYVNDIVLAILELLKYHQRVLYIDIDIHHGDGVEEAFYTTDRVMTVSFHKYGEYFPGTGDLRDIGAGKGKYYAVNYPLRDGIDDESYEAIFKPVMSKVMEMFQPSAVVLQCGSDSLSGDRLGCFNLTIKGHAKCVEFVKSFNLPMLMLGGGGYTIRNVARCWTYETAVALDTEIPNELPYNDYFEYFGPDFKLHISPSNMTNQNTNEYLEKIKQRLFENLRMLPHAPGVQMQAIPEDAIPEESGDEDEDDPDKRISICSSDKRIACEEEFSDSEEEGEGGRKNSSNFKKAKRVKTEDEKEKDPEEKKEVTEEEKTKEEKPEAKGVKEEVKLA
Sequence of Histone deacetylase 5 (Q9UQL6 whole entry): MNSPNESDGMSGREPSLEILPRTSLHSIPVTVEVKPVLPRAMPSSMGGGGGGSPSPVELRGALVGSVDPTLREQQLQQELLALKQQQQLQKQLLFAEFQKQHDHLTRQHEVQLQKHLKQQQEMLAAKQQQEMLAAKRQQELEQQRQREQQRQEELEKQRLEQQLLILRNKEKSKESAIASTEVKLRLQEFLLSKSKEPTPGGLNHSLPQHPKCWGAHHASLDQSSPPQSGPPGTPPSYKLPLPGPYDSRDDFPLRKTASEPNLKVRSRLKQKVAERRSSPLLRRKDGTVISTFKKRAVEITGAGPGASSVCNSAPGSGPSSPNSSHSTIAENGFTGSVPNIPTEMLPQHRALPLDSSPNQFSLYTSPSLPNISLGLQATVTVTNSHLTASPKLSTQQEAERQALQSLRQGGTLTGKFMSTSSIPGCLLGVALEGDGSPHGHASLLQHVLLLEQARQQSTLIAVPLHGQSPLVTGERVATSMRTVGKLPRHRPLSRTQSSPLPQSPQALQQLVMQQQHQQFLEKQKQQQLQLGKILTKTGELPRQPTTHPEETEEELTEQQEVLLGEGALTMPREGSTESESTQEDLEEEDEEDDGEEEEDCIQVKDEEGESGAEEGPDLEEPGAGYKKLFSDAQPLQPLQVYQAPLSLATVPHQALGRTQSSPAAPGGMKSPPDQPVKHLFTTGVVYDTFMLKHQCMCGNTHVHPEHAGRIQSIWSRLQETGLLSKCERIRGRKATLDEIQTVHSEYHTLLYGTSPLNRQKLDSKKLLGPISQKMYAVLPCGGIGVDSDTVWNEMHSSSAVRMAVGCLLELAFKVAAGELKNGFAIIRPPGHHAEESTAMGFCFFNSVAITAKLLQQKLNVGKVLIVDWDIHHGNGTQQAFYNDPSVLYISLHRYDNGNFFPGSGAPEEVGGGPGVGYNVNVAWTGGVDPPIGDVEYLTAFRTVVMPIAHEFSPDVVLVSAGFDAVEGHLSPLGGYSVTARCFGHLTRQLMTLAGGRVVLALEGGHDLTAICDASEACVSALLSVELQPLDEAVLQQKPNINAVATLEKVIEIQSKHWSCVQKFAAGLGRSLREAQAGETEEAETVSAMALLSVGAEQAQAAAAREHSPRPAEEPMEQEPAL

Nc1ccccc1NC(=O)c1ccc(CCn2ncc3c2nc(N)n2nc(-c4ccco4)nc32)cc1
IC50 (Histone deacetylase 9): > 10 µM
bioavailability [1]: 30.3%
k el at 24 h [2]: 0.000678 s⁻¹
GI50 (MC-38 [3]): 6.2 µM
inhibition in vivo at 50 mg/kg (MC-38 [4]): 81%
MRT [5]: 0.334 h
Cmax [6]: 2160 ng/mL
AUC(0-inf) [7]: 6630 ng·h/mL
MRT [8]: 2.61 h
clearance [9]: 59 mL/min/kg
Cmax [10]: 3320 ng/mL
AUC(0-inf) [11]: 1470 ng·h/mL
Activity [12]: Toxic
inhibition in vivo at 60 mg/kg (MC-38 [13]): 95.3%
IC50 (Histone deacetylase 5): > 10 µM
half-life [14]: 1.89 h
IC50 (Histone deacetylase 1): 0.0802 µM
IC50 (Histone deacetylase 7): > 10 µM
Ki (Adenosine receptor A2b): 0.35 µM
k el at 24 h [15]: 0.000138 s⁻¹
Cmax [16]: 1590 ng/mL
half-life [17]: 1.97 h
k el at 24 h [18]: 9.86e-05 s⁻¹
